Entries after “also recorded” stand apart in the source; their conditions may differ.
Columns and labels:
[1] = test system: experimental autoimmune encephalomyelitis (EAE); test: EAE induced by adoptive transfer of PLP-primed effector cells: clinical disease; type: in vivo, SJL mice; details: for onset, incidence and severity of disease (EAE): ovariectomized female SJL recipient mice, compounds daily s.c. or p.o. from 5-7 days before transfer, severity scale 0-6
[2] = test system: experimental autoimmune encephalomyelitis (EAE), brain and spinal cord; test: Histological analysis of brains and spinal cords of EAE mice at peak disease; type: in vivo, SJL mice
Description: Histological Analysis. At peak disease (14 days PT), mice were euthanized with CO2. […] Brains were cut into three segments (roughly, anterior cerebrum, midbrain and cerebellum) and embedded as a single block. […] A standard H&E (hematoxylin and eosin) glass slide was prepared from each tissue block (brain and spinal cord) from each mouse submitted with two resulting H&E slides per mouse evaluated. Slides were evaluated and lesions seen were graded subjectively for presence (P=present) and/or severity. […] The location of findings, relative to the organ, was denoted as perivascular, periventricular, ependymal or meningeal, and also as focal (in small areas or not throughout the section), or diffuse (throughout the section examined). Focal was defined as very localized and not affecting every structure. Findings not defined as focal were diffuse or affecting every structure (e.g. all vessels). […] Typical murine models of EAE have scattered foci of slight to moderate-sized aggregates of leukocytes and rarely have diffuse infiltrates in the affected tissues.

[3] = test system: PLP-primed effector cells (splenocytes); test: Cytokine production by PLP-primed effector cells upon antigen stimulation in vitro; type: cell-based, SJL mice; details: compound 1 μM, 5 μg/ml PLP, 3 days
Description: To examine in vitro the effect of compounds on cytokine production by PLP-primed effector cells, SJL mice were immunized with PLP emulsified in CFA. After 10 days, spleens were collected and single cell suspensions were made. After lysis of red blood cells, splenocytes were stimulated with 5 μg/ml PLP in the presence of compound for 3 days at 37° C., 5% CO2. Control samples were not stimulated and cultured in medium only (“medium”). Compounds were added at a final concentration of 1 μM. After the 3-day incubation, supernatants were collected and stored at −20° C. Cytokines (TNF-α, IFN-γ, IL-5, IL-4, IL-2) were measured in the supernatants using a Cytometric Bead Array kit.

[4] = test system: PLP-primed effector T cells (splenocytes); test: Proliferation of effector T cells upon antigen (PLP) stimulation, CFSE flow cytometry; type: cell-based, SJL mice; details: compound 1 μM, 3 days
Source text: Effect of compounds on proliferation of effector T cells upon antigen stimulation To examine the effect of proliferation of effector T cells in vitro in response to PLP stimulation, T-cell proliferation was examined by flow cytometry using the following assay. SJL mice were immunized with PLP emulsified in CFA. After 10 days, spleens were collected and single cell suspensions were made. After lysis of red blood cells, splenocytes were labeled with carboxy fluorescein succinimidyl ester (CFSE). CFSE-labeled cells were then incubated with PLP for 3 days at 37° C., 5% CO2. Compounds were added at a final concentration of 1 μM. To determine the percentage of CD4^+ cells that divided, the CFSE-labeled cells were stained with antibodies specific for the CD4 marker prior to flow cytometric analysis.

[5] = Table II, 14 days PT, grade 0-5
[6] = Table II, 14 days PT, grade 0 within normal limits to 5 severe
[7] = Table III (ER-selective agonists), 14 days PT
[8] = Table III (ER-selective agonists), 14 days PT, grade 0-5

SMILES	Brain Meningeal/Perivascular Leukocyte Infiltrates: number of brains with finding/total number evaluated ([2]; Table II, 14 days PT)	Spinal Cord Demyelination: number with finding/total number evaluated ([2]; Table II, 14 days PT)	Spinal Cord Meningeal/Perivascular Leukocyte Infiltrates: number with finding/total number evaluated ([2]; Table II, 14 days PT)	Spinal Cord Meningeal/Perivascular Leukocyte Infiltrates: average severity grade of lesions seen [2, 5]	Brain Meningeal/Perivascular Leukocyte Infiltrates: average severity grade of lesions seen [2, 6]	Spinal Cord Demyelination: number with finding/total number evaluated [2, 7]	Spinal Cord Meningeal/Perivascular Leukocyte Infiltrates: number with finding/total number evaluated [2, 7]	Brain Meningeal/Perivascular Leukocyte Infiltrates: average severity grade of lesions seen [2, 8]	onset, incidence and severity of disease (EAE) [1]	Brain Meningeal/Perivascular Leukocyte Infiltrates: number of brains with finding/total number evaluated [2, 7]	Spinal Cord Demyelination: average severity grade of lesions seen [2, 8]	Spinal Cord Meningeal/Perivascular Leukocyte Infiltrates: average severity grade of lesions seen [2, 8]	other results
Cc1c(-c2ccc(O)cc2)n(Cc2ccc(OCCN3CCCCC3)cc2)c2ccc(O)cc12.Cl.O [Compound A]	3/5	0/5	1/5	1	2.7	–	–	–	–	–	–	–	onset, incidence and severity of disease (EAE) ([1]; hydrochloride monohydrate): delay in onset as well as decreased incidence and severity of disease; also recorded: delayed onset of disease, as well as decreased incidence and severity; demyelination in spinal cords ([2]; SERM experiment): no demyelination was detected; amount of inflammatory cells infiltrating the spinal cords and brains ([2]; compared to mice from other treatment groups (text, SERM experiment)): reduction; pathology and leukocyte infiltration in the brains and spinal cords ([2]; conclusions): reduced pathology and leukocyte infiltration; IFN-γ production by effector T cells upon antigen stimulation [3]: suppressed; IL-4 production by effector T cells upon antigen stimulation [3]: concomitant increase; TNF-α production by effector T cells upon antigen stimulation [3]: inhibited; cytokine production by effector cells upon antigen stimulation [3]: decreased cytokine production; proliferation of CD4+ cells upon antigen stimulation [4]: suppressed; proliferation of CD4− cells upon antigen stimulation [4]: suppressed; proliferation of antigen-specific T cells [4]: decreased proliferation
CCCc1c(-c2ccc(O)cc2)nn(-c2ccc(O)cc2)c1-c1ccc(O)cc1 [PPT, propylpyrazole triol]	–	–	–	–	–	0/4	0/4	1	–	–	–	–	–
C[C@]12CC[C@@H]3c4ccc(O)cc4C[C@@H](CCCCCCCCC[S+]([O-])CCCC(F)(F)C(F)(F)F)[C@H]3[C@@H]1CC[C@@H]2O (some centres unmarked) [ICI 182,780]	–	–	–	–	–	–	–	–	–	–	–	–	effect of ER antagonist on estrogen-mediated suppression of disease ([1]; mice treated with both E2 and ICI 182,780): abolished the effect of E2 on disease
O=C(c1ccc(OCCN2CCCCC2)cc1)c1c(-c2ccc(O)cc2)sc2cc(O)ccc12 [Raloxifene, raloxifene]	–	–	–	–	–	–	–	–	delay in onset as well as decreased incidence and severity of disease; also recorded: delayed onset of disease, as well as decreased incidence and severity	–	–	–	–
C[C@]12CC[C@@H]3c4ccc(O)cc4CC[C@H]3[C@@H]1CC[C@@H]2O [Compound E2, 17β-estradiol]	4/4	¾	¾	1.7	2.5	1/4	2/4	1.7	delay in onset as well as decreased incidence and severity of disease	3/4	1	1	Spinal Cord Demyelination: average severity grade of lesions seen [2, 5]: 1.3; Distribution of Brain Lesions [2, 7]: Meningeal
C=Cc1cc(O)cc2nc(-c3ccc(O)c(F)c3)oc12 [ERβ-041]	–	–	–	–	–	2/4	2/4	2.3	–	4/4	1.5	1.5	–
